From ChEMBL document CHEMBL1136786, “2002 Medicinal Chemistry Division Award address: monoamine transporters and opioid receptors. Targets for addiction therapy” (J Med Chem, 2003)
Calls of active or inactive are those of the source. The calls are words filed in the database; no cut-off is given here.

Assays:
[1] = target: Mu-type opioid receptor (Cavia porcellus) (UniProt P97266); experiment: Inhibition of [35S]GTP-gamma-S, binding in guines pig caudate stimulated by DAMGO for Opioid receptor mu 1; format: functional
Chain of Mu-type opioid receptor (Cavia porcellus) (P97266 whole entry): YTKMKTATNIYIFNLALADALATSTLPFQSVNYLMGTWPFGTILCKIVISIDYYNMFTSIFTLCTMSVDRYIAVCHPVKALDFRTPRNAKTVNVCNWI

[2] = target: Kappa-type opioid receptor (Cavia porcellus) (UniProt P41144); experiment: Inhibition of [35S]GTP-gamma-S, binding in guines pig caudate stimulated by U69, 593 of Opioid receptor kappa 1; format: functional
Chain of Kappa-type opioid receptor (Cavia porcellus) (P41144 whole entry): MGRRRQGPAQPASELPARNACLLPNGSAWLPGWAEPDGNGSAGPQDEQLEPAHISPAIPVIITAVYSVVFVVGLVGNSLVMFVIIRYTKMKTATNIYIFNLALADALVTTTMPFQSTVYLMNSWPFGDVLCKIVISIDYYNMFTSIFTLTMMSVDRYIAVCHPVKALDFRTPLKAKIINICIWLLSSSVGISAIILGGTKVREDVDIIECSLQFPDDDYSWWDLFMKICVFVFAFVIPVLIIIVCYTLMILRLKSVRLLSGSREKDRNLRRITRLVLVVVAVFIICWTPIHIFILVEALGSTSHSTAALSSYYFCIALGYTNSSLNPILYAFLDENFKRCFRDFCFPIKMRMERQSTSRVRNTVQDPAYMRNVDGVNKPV

[3] = target: Sodium-dependent dopamine transporter (Rattus norvegicus, UniProt P23977); experiment: Inhibition of [3H]WIN-35428 binding at dopamine transporter was determined
Chain of Sodium-dependent dopamine transporter (P23977 whole entry): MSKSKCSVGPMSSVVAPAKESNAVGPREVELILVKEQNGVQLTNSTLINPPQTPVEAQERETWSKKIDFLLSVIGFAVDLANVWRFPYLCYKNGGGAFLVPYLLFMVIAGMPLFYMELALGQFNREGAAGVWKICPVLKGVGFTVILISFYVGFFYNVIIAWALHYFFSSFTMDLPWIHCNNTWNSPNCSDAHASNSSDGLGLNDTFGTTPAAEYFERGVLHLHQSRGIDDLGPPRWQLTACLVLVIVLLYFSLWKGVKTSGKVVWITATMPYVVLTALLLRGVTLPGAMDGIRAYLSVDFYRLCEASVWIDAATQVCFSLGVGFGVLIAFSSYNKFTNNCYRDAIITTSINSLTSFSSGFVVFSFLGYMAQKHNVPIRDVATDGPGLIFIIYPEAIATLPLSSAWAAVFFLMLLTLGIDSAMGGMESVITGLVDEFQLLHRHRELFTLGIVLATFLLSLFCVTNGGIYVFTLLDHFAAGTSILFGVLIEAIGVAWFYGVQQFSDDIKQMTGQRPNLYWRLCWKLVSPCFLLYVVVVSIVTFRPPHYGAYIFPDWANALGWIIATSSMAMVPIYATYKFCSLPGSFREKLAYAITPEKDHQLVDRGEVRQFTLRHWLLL

[4] = target: T1, Norepinephrine transporter (Rattus norvegicus, UniProt Q9WTR4); experiment: Inhibition of [3H]nisoxetine binding at norepinephrine transporter
T1 sequence (Q9WTR4 whole entry): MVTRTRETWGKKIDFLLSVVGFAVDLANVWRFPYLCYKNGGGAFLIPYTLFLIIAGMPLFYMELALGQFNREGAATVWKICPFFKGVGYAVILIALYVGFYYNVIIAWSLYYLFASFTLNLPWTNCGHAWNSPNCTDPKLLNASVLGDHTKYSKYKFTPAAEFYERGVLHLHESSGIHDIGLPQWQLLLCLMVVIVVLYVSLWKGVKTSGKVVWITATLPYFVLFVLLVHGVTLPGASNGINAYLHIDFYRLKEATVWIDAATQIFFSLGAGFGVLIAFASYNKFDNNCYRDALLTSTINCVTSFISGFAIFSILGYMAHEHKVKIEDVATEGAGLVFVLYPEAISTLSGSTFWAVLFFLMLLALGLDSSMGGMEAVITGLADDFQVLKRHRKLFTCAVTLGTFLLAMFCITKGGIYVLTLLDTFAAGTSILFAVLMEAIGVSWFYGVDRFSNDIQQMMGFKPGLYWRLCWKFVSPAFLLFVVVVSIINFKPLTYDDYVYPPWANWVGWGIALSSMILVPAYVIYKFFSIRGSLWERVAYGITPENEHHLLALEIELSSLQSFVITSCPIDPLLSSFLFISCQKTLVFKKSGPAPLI

[5] = target: T1, Norepinephrine transporter; experiment: Affinity for norepinephrine transporter determined by [3H]nisoxetine displacement.
Rattus norvegicus [6] = experiment: Effective dose of compound required to produce maximal locomotor activity in cocaine-trained rat by intraperitoneal administration; format: functional; settings: ip
Rattus norvegicus [7] = experiment: Effective dose of compound required to produce maximal locomotor activity in cocaine-trained rat by oral administration; format: functional
Rattus norvegicus [8] = experiment: Effective dose of compound required to produce maximal locomotor activity in rat by intraperitoneal administration; format: functional; settings: ip
Rattus norvegicus [9] = experiment: Effective dose of compound required to produce maximal locomotor activity in rat by oral administration; format: functional
Rattus norvegicus [10] = experiment: Time taken to produce maximal locomotor activity at 30 min period in rat by intraperitoneal administration; format: functional
Rattus norvegicus [11] = experiment: Time taken to produce maximal locomotor activity at 30 min period in rat by oral administration; format: functional
Rattus norvegicus [12] = experiment: Time during which activity returned to baseline level in rat by intraperitoneal administration; format: functional
Rattus norvegicus [13] = experiment: Time during which activity returned to baseline level in rat by oral administration; format: functional
Rattus norvegicus [14] = experiment: Maximal locomotor activity of compound compared as a percent of cocaine's effect in rat by intraperitoneal administration; format: functional
Rattus norvegicus [15] = experiment: Maximal locomotor activity of compound compared as a percent of cocaine's effect in rat by oral administration; format: functional
[16] = target: Sodium-dependent serotonin transporter (Rattus norvegicus, UniProt P31652); experiment: Inhibition of [3H]paroxetine binding at serotonin transporter was determined
Chain of Sodium-dependent serotonin transporter (P31652 whole entry): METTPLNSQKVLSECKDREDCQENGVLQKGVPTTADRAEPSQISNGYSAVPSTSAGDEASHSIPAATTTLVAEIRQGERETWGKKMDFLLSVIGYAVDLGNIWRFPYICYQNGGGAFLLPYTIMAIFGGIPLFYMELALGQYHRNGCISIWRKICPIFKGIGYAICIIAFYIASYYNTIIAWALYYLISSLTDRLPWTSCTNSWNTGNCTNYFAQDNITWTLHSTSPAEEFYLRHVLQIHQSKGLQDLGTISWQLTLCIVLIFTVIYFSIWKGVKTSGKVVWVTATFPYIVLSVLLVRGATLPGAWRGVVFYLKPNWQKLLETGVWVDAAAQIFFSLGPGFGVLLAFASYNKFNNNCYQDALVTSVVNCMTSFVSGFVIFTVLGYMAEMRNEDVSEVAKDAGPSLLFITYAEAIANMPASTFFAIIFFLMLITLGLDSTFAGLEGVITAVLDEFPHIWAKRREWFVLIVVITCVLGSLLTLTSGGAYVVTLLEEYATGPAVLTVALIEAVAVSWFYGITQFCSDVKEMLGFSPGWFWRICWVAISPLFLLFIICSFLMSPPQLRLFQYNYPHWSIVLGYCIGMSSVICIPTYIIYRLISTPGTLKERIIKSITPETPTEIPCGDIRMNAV

Mu-type opioid receptor = Mu-type opioid receptor (Cavia porcellus, UniProt P97266); experiment: Inhibition of binding of [3H]DAMGO to Opioid receptor mu 1 in guinea pig membranes; format: cell membranes
Chain of Mu-type opioid receptor (P97266 whole entry): as the sequence (P97266 whole entry) above

[17] = target: Mu-type opioid receptor (Cavia porcellus) (UniProt P97266)
Description: Inhibition of [35S]GTP-gamma-S, binding in cloned Opioid receptor mu 1 stimulated by DAMGO

[18] = target: Kappa-type opioid receptor (Cavia porcellus) (UniProt P41144)
Description: Inhibition of [35S]GTP-gamma-S, binding in cloned Opioid receptor kappa 1 stimulated by U69, 593

[19] = target: Kappa-type opioid receptor (Cavia porcellus) (UniProt P41144); remark: listed apart in the source
Description: Inhibition of [35S]GTP-gamma-S, binding in guines pig caudate stimulated by U50, 488 of Opioid receptor kappa 1

[20] = target: D(2) dopamine receptor (Rattus norvegicus) (UniProt P61169)
Chain of D(2) dopamine receptor (Rattus norvegicus) (P61169 whole entry): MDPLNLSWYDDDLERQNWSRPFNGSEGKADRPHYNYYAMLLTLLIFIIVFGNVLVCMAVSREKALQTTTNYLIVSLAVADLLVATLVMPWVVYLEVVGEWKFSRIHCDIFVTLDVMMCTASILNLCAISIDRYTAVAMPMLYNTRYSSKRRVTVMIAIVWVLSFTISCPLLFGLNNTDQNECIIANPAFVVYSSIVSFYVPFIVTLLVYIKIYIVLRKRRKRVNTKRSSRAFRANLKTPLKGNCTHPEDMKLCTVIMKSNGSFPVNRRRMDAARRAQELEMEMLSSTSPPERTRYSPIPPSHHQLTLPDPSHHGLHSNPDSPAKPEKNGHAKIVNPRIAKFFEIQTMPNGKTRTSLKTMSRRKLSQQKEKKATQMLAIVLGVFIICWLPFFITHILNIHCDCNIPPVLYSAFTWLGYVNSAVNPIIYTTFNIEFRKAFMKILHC

[21] = target: D(2) dopamine receptor (Rattus norvegicus) (UniProt P61169); settings: Nucleus accumbens
[22] = target: D(1A) dopamine receptor (Rattus norvegicus) (UniProt P18901); settings: Striatum
Chain of D(1A) dopamine receptor (Rattus norvegicus) (P18901 whole entry): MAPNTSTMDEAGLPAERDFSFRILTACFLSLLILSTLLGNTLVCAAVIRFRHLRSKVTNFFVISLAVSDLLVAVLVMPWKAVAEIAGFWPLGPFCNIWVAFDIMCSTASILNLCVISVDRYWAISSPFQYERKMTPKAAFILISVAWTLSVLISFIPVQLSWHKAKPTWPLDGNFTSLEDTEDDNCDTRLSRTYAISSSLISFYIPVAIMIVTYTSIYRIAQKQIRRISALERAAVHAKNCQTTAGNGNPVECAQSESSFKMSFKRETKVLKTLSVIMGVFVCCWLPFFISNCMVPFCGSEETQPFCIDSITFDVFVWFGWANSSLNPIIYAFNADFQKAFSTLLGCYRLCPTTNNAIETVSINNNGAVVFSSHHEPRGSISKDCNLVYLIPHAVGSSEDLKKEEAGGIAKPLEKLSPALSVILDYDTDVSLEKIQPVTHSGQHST

[23] = target: D(1A) dopamine receptor (Rattus norvegicus) (UniProt P18901); settings: Striatum; remark: listed apart in the source
[24] = target: Kappa-type opioid receptor (Cavia porcellus) (UniProt P41144); remark: listed apart in the source
Description: Inhibition of [35S]GTP-gamma-S, binding in cloned Opioid receptor kappa 1 stimulated by U50,488

[25] = target: Delta-type opioid receptor (Homo sapiens) (UniProt P41143); settings: Cavia porcellus
Chain of Delta-type opioid receptor (Homo sapiens) (P41143 whole entry): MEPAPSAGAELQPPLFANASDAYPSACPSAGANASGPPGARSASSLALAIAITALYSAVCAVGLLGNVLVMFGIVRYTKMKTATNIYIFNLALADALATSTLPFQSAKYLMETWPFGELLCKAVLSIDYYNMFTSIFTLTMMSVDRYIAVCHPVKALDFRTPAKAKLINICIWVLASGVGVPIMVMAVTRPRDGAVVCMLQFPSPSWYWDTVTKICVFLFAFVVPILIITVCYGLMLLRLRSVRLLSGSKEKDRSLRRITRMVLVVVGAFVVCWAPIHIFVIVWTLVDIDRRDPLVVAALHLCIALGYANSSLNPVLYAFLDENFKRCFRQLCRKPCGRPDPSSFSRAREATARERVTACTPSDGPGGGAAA
Description: Inhibition of [35S]GTP-gamma-S, binding in cloned Opioid receptor delta 1 stimulated by SNC-80

[26] = target: Delta-type opioid receptor (Homo sapiens) (UniProt P41143); settings: Cavia porcellus; remark: listed apart in the source
Description: Inhibition of [35S]GTP-gamma-S, binding in guines pig caudate stimulated by SNC-80 to Opioid receptor delta 1

Mus musculus [27] = species: Mus musculus; experiment: Antagonistic activity of nicotine-induced hypothermia in mice was determined; format: functional
Mus musculus [28] = species: Mus musculus; experiment: Antagonistic activity of nicotine-induced analgesia in mice was determined; format: functional

Row | Compound | IC50 [3] [nM] | IC50 [4] [nM] | Ki [5] [nM] | IC50 [16] [nM] | Ki [16] [nM] | other results
1 | C[C@H]1C2CCCC1(c1cccc(O)c1)CCN2CCc1ccccc1 (stereo partly drawn) |  |  |  |  |  | Ke [1]: 0.338 nM; Ke [2]: 1.34 nM
2 | CN1C2CC[C@@H]1C[C@H](c1ccc(Cl)cc1)C2C(=O)OCCc1ccc(N)cc1 (stereo partly drawn) | 2.16 |  |  |  |  | 
3 | Cc1ccc([C@H]2C[C@H]3CCC(C2C(=O)OC(C)C)N3C)cc1 (stereo partly drawn) | 6.45 | 1930 | 1160 | 6090 | 554 | ED50 (Rattus norvegicus [6]): 4.4 mg/kg; ED50 (Rattus norvegicus [7]): 5.7 mg/kg; ED50 (Rattus norvegicus [8]): 3.1 mg/kg; ED50 (Rattus norvegicus [9]): 4.7 mg/kg; Peak time (Rattus norvegicus [10]): 10 min; Peak time (Rattus norvegicus [11]): 100 min; Time (Rattus norvegicus [12]): >4 h; Time (Rattus norvegicus [13]): >4 h; Maximal locomotor activity (% of cocaine) (Rattus norvegicus [14]): 103%; Cocaine (Rattus norvegicus [15]): 116%
4 | COC(=O)C1C2CC[C@H](C[C@H]1c1ccc(Cl)c(Cl)c1)N2C (stereo partly drawn) |  | 18 | 10.8 | 3.13 | 0.28 | 
5 | CC(C)[C@@H](CN1CC[C@@](C)(c2cccc(O)c2)[C@@H](C)C1)NC(=O)CCc1ccc(O)cc1 |  |  |  |  |  | Ke [1]: 7.25 nM; Ke [2]: 4.7 nM
6 | COC(=O)C1C2CC[C@H](C[C@@H]1c1ccc(C)cc1)N2 (stereo partly drawn) | 33.6 | 9 | 5.4 | 500 | 46 | 
7 | C[C@H]1CN(C/C=C/c2ccccc2Cl)CC[C@@]1(C)c1cccc(O)c1 |  |  |  |  |  | Ki (Mu-type opioid receptor): 1.12 nM; Ke [1]: 0.026 nM; Ke [2]: 0.567 nM
8 | CN1[C@H]2CC[C@@H]1[C@@H](C(=O)N1CCCC1)[C@@H](c1ccc(I)cc1)C2 |  |  | 596 |  | 157 | 
9 | Cc1ccc([C@H]2C[C@H]3CCC(C2c2ccccc2)N3C)cc1 (stereo partly drawn) | 1.96 | 480 | 289 | 11000 | 1000 | 
10 | CN1C2CC[C@@H]1C[C@H](c1ccc(Cl)cc1)C2c1cc(-c2ccccc2)no1 (stereo partly drawn) |  |  | 304 |  | 220 | 
11 | CN1C2CCC1C(C(=O)Oc1ccccc1)C(c1ccc(Cl)cc1)C2 (stereo not drawn) |  |  | 1780 |  | 214 | ED50 (Rattus norvegicus [6]): 2.28 mg/kg; ED50 (Rattus norvegicus [8]): 0.93 mg/kg; Peak time (Rattus norvegicus [10]): 30 min; Time (Rattus norvegicus [12]): >4 h; Maximal locomotor activity (% of cocaine) (Rattus norvegicus [14]): 128%
12 | Oc1ccc2c3c1O[C@H]1c4[nH]c5c(c4C[C@@]4(O)[C@@H](C2)N(CC2CC2)CC[C@]314)C[C@@]1(O)[C@H]2Cc3ccc(O)c4c3[C@@]1(CCN2CC1CC1)[C@H]5O4 |  |  |  |  |  | Ke [1]: 16.8 nM; Ke [17]: 15.8 nM; Ke [18]: 0.07 nM; Ke [19]: 0.038 nM
13 | COC(=O)C1C2CC[C@H](C[C@@H]1c1cccc(I)c1)N2 (stereo partly drawn) | 26 | 1600 | 964 | 39 | 3.6 | 
14 | C[C@H]1CN(C/C=C/c2ccccc2)CC[C@@]1(C)c1cccc(O)c1 |  |  |  |  |  | Ki (Mu-type opioid receptor): 0.74 nM; Ke [1]: 0.039 nM; Ke [2]: 1.04 nM
15 | COC(=O)C1C2CC[C@H](C[C@@H]1c1ccc(C)c(F)c1)N2 (stereo partly drawn) | 9 | 0.86 | 0.43 | 97.4 | 23.8 | 
16 | COC(=O)C1C2CC[C@H](C[C@@H]1c1ccc(I)cc1)N2C (stereo partly drawn) |  |  | 21.6 |  | 0.38 | 
17 | CCc1cc(Cl)c(OC)c(C(=O)NC[C@@H]2CCCN2CC)c1O |  |  |  |  |  | NC [20]: inactive; NC [21]: inactive

Row | Compound | IC50 [3] [nM] | IC50 [4] [nM] | Ki [5] [nM] | IC50 [16] [nM] | Ki [16] [nM] | other results
18 | COC(=O)[C@@H]1C2CC[C@H](C[C@@H]1c1ccccc1)N2C.Cl |  |  | 554 |  |  | ED50 (Rattus norvegicus [6]): 0.35 mg/kg; ED50 (Rattus norvegicus [8]): 2.1 mg/kg; Peak time (Rattus norvegicus [10]): 10 min; Time (Rattus norvegicus [12]): 2 h; Maximal locomotor activity (% of cocaine) (Rattus norvegicus [14]): 146%
19 | CN1C2CC[C@@H]1C[C@H](c1ccc(Cl)cc1)C2C(=O)N1CCCC1 (stereo partly drawn) | 1.38 | 3940 | 2370 | 12400 | 1130 | 
20 | CN1CCc2cc(Cl)c(O)cc2[C@@H](c2ccccc2)C1 |  |  |  |  |  | NC [22]: inactive; NC [23]: inactive
21 | CCc1ccc([C@H]2C[C@H]3CCC(N3)C2C(=O)OC)cc1 (stereo partly drawn) | 50 | 122 | 74 | 8.1 | 0.74 | 
22 | CC(C)[C@@H](CN1CC[C@@](C)(c2cccc(O)c2)[C@@H](C)C1)NC(=O)[C@H]1Cc2ccc(O)cc2CN1 |  |  |  |  |  | Ke [17]: 3.42 nM; Ke [24]: 6 pM; Ke [25]: > 100 nM
23 | C[C@H]1CN(CC[C@H](O)C2CCCCC2)CC[C@@]1(C)c1cccc(O)c1 |  |  |  |  |  | Ki (Mu-type opioid receptor): 0.32 nM; Ke [1]: 0.021 nM; Ke [2]: 0.33 nM; Ke [26]: 0.312 nM
24 | Oc1cc2c(cc1O)C(c1ccccc1)CNCC2 (stereo not drawn) |  |  |  |  |  | NC [22]: inactive; NC [23]: inactive
25 | CCc1ccc([C@H]2C[C@H]3CCC(N3)C2C(=O)OC)cc1I (stereo partly drawn) | 329 | 148 | 89 | 0.69 | 0.063 | 
26 | C=C(C)c1ccc([C@H]2C[C@H]3CCC(N3)C2C(=O)OC)cc1 (stereo partly drawn) | 23 | 144 | 87 | 0.6 | 0.055 | 
27 | COC(=O)C1C2CC[C@H](C[C@@H]1c1ccc(Cl)cc1)N2C (stereo partly drawn) |  |  |  |  | 4.1 | 
28 | CN(C)C(=O)C1C2CC[C@H](C[C@@H]1c1ccc(Cl)cc1)N2C (stereo partly drawn) | 1.38 | 940 | 566 | 1080 | 98 | 
29 | CC1CN(C)C2CCCC1(c1cccc(O)c1)C2 (stereo not drawn) |  |  |  |  |  | Ke [1]: 25.2 nM; Ke [2]: 76.4 nM
30 | Cc1ccc(-c2cc(C3C4CC[C@H](C[C@@H]3c3ccc(Cl)cc3)N4C)on2)cc1 (stereo partly drawn) | 4.09 | 1710 | 1030 | 5740 | 522 | ED50 (Rattus norvegicus [6]): 5.6 mg/kg; ED50 (Rattus norvegicus [7]): 3.54 mg/kg; ED50 (Rattus norvegicus [8]): 4.8 mg/kg; ED50 (Rattus norvegicus [9]): 14.4 mg/kg; Peak time (Rattus norvegicus [10]): 70 min; Peak time (Rattus norvegicus [11]): 60 min; Time (Rattus norvegicus [12]): >4 h; Time (Rattus norvegicus [13]): >4 h; Maximal locomotor activity (% of cocaine) (Rattus norvegicus [14]): 71%; Cocaine (Rattus norvegicus [15]): 77%
31 | Cc1ccccc1/C=C/CN1CC[C@@](C)(c2cccc(O)c2)[C@@H](C)C1 |  |  |  |  |  | Ki (Mu-type opioid receptor): 0.86 nM; Ke [1]: 0.013 nM; Ke [2]: 0.17 nM
32 | COC(=O)C1C2CC[C@H](C[C@H]1c1ccc(Br)cc1)N2C (stereo partly drawn) |  |  |  | 10.6 | 0.96 | 
33 | CC1C2CCCC1(c1cccc(O)c1)CCN2C (stereo not drawn) |  |  |  |  |  | Ke [1]: 21.2 nM; Ke [2]: 105 nM
34 | CC(NC(C)(C)C)C(=O)c1cccc(Cl)c1 (stereo not drawn) [BUPROPION] |  |  |  |  |  | AD50 (Mus musculus [27]): 16 mM/kg; AD50 (Mus musculus [28]): 9 mM/kg
